Experimental data taken from US6197963A, “Non-peptide peptidomimetics” (The Trustees of the University of Pennsylvania, priority 1998, dated 2001).
“Also recorded” adds a separate entry of the source. Where two headings read alike, the source gives them in different places. One block for each molecule: values may come before it.

Experiments:
[1] = target: T1, human neurokinin-1 receptor (NK1R) (Homo sapiens, UniProt P25103); assay: Displacement of 125I-substance P from human NK1R expressed in COS cells (Example 12); type: binding; conditions: 125I-substance P, COS cells (Example 12)
T1 construct: expressed in transfected cells; host or cells: COS cells
T1 sequence (P25103 whole entry): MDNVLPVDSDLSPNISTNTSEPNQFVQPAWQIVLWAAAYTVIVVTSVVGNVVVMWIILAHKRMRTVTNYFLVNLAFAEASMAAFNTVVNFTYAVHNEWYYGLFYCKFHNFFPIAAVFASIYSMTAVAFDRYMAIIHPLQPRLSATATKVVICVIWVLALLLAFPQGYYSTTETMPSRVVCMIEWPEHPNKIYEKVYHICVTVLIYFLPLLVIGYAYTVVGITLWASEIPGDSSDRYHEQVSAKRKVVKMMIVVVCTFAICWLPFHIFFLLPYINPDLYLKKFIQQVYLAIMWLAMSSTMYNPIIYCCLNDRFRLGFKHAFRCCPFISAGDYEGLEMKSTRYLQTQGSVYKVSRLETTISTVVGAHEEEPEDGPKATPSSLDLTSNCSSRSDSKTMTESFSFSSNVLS
Protocol: The affinity of a variety of compounds for the substance P receptor was determined employing the following procedure.
To express the cloned human neurokinin-1 receptor (NK1R) transiently in COS, the cDNA for the human NK1R was cloned into the expression vector pCDM9 which was derived from pCDM8 (Invitrogen) by inserting the ampicillin resistance gene (nucleotide 1973 to 2964 from Bluescript SK+) into the Sac II site. Transfection of 20 μg of the plasmid DNA into 10 million COS cells was achieved by electroporation in 800 μl of the transfection buffer ([…], 1.2 mM MgCl2, 2.4 mM K2 HPO4, 0.6 mM KH2PO4, […], 10 mM HEPES pH 7.4) at 260 V and 950 μF using the IBI Genezapper (IBI, New Haven, Conn.). The cells were incubated in 10% fetal calf serum, 2 mM glutamine, 100 U/ml penicillin-streptomycin, and 90% DMEM media (Gibco, Grand Island, N.Y.) in 5% CO2 at 37° C. for three days before the binding assay.
The binding assay of human NK1R expressed in COS cells is based on the use of ^125 I-substance P (^125 I-SP, from DuPont, Boston, Mass.) as a radioactively labeled ligand which competes with unlabeled substance P or any other ligand for binding to the human NK1R. Monolayer cell cultures of COS were dissociated by the non-enzymatic solution (Specialty Media, Lavallette, N.J.) and resuspended in appropriate volume of the bind buffer (50 mM Tris pH 7.5, 5 mM MnCl2, 150 mM NaCl, 0.04 mg/ml bacitracin, 0.004 mg/ml leupeptin, 0.2 mg/ml BSA, 0.01 mM phosphoramidon) such that 200 μl of the cell suspension would give rise to about 10,000 cpm of specific ^125 I-SP binding (approximately 50,000 to 200,000 cells). In the binding assay, 200 μl of cells were added to a tube containing 20 μl of 1.5 to 2.5 nM of ^125 I-SP and 20 μl of unlabeled substance P or any other test compound. The tubes were incubated at 4° C. or at room temperature for 1 hour with gentle shaking. The bound radioactivity was separated from unbound radioactivity by GF/C filter (Brandel, Gaithersburg, Md.) which was pre-wetted with 0.1 polyethylenimine. The filter was washed with 3 ml of wash buffer (50 Tris pH 7.5, 5 mM MnCl2, 150 mM NaCl) three times and its radioactivity was determined by gamma counter.
A variety of compounds were tested according to the COS cell procedure. The concentration of compound required to inhibit the binding of substance P to the human neurokinin-1 receptor by 50% was measured.

[2] = test system: SRIF receptors on AtT-20 cells; assay: Binding at SRIF receptors of AtT-20 cells (Examples 104-110, Tables 1-3); set-up: species or system mouse; key to AtT-20 cells IC50: DNB: Did Not Bind
five hSSTRs = assay: Profile / average over the five human SRIF receptor subtypes; type: binding
hSSTR5 = hSSTR5 (Homo sapiens, UniProt P35346); assay: Binding at human SRIF receptor subtype hSSTR5; conditions: for Ki: TABLE 3, read-out: hSSTR 5 Ki
Sequence of hSSTR5 (P35346 whole entry): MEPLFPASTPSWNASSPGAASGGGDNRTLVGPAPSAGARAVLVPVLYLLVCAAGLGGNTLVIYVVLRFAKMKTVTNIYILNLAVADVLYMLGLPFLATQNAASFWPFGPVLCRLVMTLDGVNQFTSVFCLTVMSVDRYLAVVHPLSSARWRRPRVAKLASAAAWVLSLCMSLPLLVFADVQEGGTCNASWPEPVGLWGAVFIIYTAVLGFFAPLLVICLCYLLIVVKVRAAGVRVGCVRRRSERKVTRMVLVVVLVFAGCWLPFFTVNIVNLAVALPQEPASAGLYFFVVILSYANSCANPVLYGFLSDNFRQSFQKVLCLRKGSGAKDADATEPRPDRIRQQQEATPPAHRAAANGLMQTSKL

hSSTR3 = hSSTR3 (Homo sapiens, UniProt P32745); assay: Binding at human SRIF receptor subtype hSSTR3
Sequence of hSSTR3 (P32745 whole entry): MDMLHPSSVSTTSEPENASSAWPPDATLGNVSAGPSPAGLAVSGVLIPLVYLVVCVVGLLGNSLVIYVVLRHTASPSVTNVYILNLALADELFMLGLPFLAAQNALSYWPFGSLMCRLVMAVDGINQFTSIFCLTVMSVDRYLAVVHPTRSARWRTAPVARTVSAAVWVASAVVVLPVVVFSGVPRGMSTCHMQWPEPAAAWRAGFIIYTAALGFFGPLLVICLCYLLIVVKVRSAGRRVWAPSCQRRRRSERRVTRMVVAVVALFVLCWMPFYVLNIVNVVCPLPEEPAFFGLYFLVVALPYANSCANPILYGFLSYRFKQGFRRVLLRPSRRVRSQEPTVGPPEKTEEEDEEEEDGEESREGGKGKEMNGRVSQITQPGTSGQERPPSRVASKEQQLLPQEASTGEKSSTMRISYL

hSSTR2 = hSSTR2 (Homo sapiens, UniProt P30874); assay: Binding at human SRIF receptor subtype hSSTR2
Sequence of hSSTR2 (P30874 whole entry): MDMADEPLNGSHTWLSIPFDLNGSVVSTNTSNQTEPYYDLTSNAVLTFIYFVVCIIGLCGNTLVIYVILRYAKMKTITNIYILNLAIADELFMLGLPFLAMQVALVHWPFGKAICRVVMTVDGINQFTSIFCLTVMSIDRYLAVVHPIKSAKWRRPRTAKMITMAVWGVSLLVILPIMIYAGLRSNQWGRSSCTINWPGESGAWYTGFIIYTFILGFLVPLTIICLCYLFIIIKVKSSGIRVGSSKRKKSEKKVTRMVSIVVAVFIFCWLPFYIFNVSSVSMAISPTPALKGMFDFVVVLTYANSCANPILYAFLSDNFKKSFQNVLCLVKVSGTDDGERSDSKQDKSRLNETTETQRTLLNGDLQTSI

hSSTR4 = hSSTR4 (Homo sapiens, UniProt P31391); assay: Binding at human SRIF receptor subtype hSSTR4
Sequence of hSSTR4 (P31391 whole entry): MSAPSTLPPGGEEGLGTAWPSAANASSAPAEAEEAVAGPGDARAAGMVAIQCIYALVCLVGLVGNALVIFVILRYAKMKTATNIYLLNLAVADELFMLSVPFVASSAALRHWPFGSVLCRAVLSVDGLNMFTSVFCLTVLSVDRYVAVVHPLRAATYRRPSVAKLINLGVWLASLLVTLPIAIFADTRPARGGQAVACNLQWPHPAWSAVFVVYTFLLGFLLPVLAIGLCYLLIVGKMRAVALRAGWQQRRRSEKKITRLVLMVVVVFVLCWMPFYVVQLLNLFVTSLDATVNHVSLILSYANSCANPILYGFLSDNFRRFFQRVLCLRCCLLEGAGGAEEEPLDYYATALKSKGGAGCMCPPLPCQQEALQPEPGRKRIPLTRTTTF

hSSTR1 = hSSTR1 (Homo sapiens, UniProt P30872); assay: Binding at human SRIF receptor subtype hSSTR1
Sequence of hSSTR1 (P30872 whole entry): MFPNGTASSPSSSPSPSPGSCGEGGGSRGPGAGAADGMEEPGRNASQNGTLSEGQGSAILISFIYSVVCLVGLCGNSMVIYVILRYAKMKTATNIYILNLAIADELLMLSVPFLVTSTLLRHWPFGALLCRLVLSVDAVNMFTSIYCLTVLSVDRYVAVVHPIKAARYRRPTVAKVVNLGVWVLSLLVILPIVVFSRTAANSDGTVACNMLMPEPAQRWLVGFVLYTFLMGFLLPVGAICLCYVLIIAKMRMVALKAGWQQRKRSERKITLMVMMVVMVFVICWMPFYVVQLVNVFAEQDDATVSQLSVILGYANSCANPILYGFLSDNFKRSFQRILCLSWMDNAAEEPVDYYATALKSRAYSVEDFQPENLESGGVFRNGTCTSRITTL

SRIF receptor = assay: Displacement of 125I-CGP-23996 from SRIF receptor on AtT-20 cells (Example 13); type: binding, mouse; conditions: displacement of 125I-CGP-23996, AtT-20 cells (Example 13)
NK-1 receptor = NK-1 receptor (Homo sapiens, UniProt P25103); assay: Binding at the NK-1 receptor (Examples 109-110)
Sequence of NK-1 receptor (P25103 whole entry): as the sequence (P25103 whole entry) above

[3] = TABLE 1 (Example 105), read-out: AtT-20 cells 50 IC
[4] = TABLE 3 (Example 108), read-out: AtT-20 IC50
[5] = read-out: IC50 at AtT-20 cell membranes
[6] = read-out: IC50 at the NK-1 receptor

SMILES: OC[C@@H]1C[C@H](OCc2ccccc2)[C@@H](OCc2ccccc2)[C@H](OCCc2c[nH]c3ccccc23)O1 [2-Indol-3-yl-ethyl-2,3,-di-O-benzyl-4-deoxy-β-D-glucopyranoside]
IC50 [1]: 400 nM

SMILES: NCCCCCCOC[C@H]1O[C@@H](OCCc2c[nH]c3ccccc23)[C@H](OCc2ccccc2)C[C@@H]1OCc1ccccc1 [III-5b, 2-(1H-Indol-3-yl)ethyl 2,4-Di-O-benzyl-3-deoxy-6-O-(6-aminohexyl)-β-D-glucopyranoside]
IC50 [2, 3]: 7000 nM

SMILES: CO[C@@H]1O[C@H](COCCCCCN)[C@@H](OCc2ccccc2)[C@H](OCc2ccccc2)[C@H]1OCc1ccccc1 [III-8a, Methyl 2,3,4-Tri-O-benzyl-6-O-(5-aminopentyl)-β-D-glucopyranoside]
hSSTR subtype affinity profile (five hSSTRs): highest affinity for hSSTR4 | Ki (hSSTR5): 3000 nM | Ki (hSSTR3; TABLE 3, read-out: hSSTR 3 Ki): 3000 nM | Ki (hSSTR2; TABLE 3, read-out: hSSTR 2 Ki): 4600 nM | Ki (hSSTR4; TABLE 3, read-out: hSSTR 4 Ki): 2000 nM | Ki (hSSTR1; TABLE 3, read-out: hSSTR 1 Ki): 2400 nM | IC50 [2, 3]: 5900 nM | IC50 [2, 4]: 5900 nM | IC50 [2, 5]: 5900 nM

SMILES: NCCCCCOC[C@@H]1O[C@H](OCCc2c[nH]c3ccccc23)[C@@H](OCc2ccccc2)[C@H](OCc2ccccc2)[C@H]1OCc1ccccc1 [IV-11, 2-(1H-Indol-3-yl)ethyl 2,3,4-tri-O-benzyl-6-O-(5'-aminopentyl)-β-L-glucopyranoside]
IC50 (NK-1 receptor; [6]): 150 nM | hSSTR subtype affinity profile (five hSSTRs): high affinities for hSSTR2 and hSSTR4 and a low affinity for SSTR1; also recorded: higher relative affinity for SSTR5 and a lesser relative affinity for SSTR3 | Ki (hSSTR3; TABLE 3, read-out: hSSTR 3 Ki): 6400 nM | Ki (hSSTR4; TABLE 3, read-out: hSSTR 4 Ki): 2000 nM

SMILES: CO[C@@H]1O[C@H](COCCCCCN)[C@@H](OCc2ccccc2)[C@H](OCc2ccccc2)[C@H]1OCc1c[nH]cn1 [IV-30, Methyl 2-O-(4'-methylene-1H-imidazole)-3,4-di-O-benzyl-6-O-(5'-aminopentyl)-β-D-glucopyranoside]
IC50 [2, 3]: > 10000 nM

SMILES: CO[C@@H]1O[C@H](COCCCCCN)[C@@H](OCc2ccccc2)[C@H](OCc2c[nH]cn2)[C@H]1OCc1ccccc1 [IV-39, Methyl 2,4-di-O-benzyl-3-O-(4'-methylene-1H-imidazole)-6-O-(5'-aminopentyl)-β-D-glucopyranoside]
IC50 [2, 3]: 5600 nM | IC50 [2, 5]: 5600 nM

SMILES: CC(=O)NCCCCCOC[C@H]1O[C@@H](OCCc2c[nH]c3ccccc23)[C@H](OCc2ccccc2)[C@@H](OCc2ccccc2)[C@@H]1O [IV-99, (-)-2-(1H-indol-3-yl)ethyl-6-O-(N-acetyl-5-aminopentyl)-2,3-di-O-benzyl-β-D-glucopyranoside]
IC50 (NK-1 receptor; read-out: affinity at the NK-1 receptor): 27 nM

SMILES: CC(C)[C@@H]1NC(=O)[C@H](CCCCN)NC(=O)[C@@H](Cc2c[nH]c3ccccc23)NC(=O)[C@H](Cc2ccc(O)cc2)NC(=O)[C@H](C)N(C)C(=O)[C@H](Cc2ccccc2)NC1=O [MK 678, reference compound]
IC50 (SRIF receptor; read-out: IC50): 60 nM

More lines, main results first:

IC50 [2, 3]: > 10000 nM
SMILES: CO[C@@H]1O[C@H](COCCCCCN)C[C@H](OCc2ccccc2)[C@H]1OCc1ccccc1 [III-10, Methyl 2,3-Di-O-benzyl-4-deoxy-6-O-(5-aminopentyl)-β-D-glucopyranoside]
activity / affinity at SRIF receptors of AtT-20 cells [2]: inactive

IC50 (SRIF receptor): does not bind | IC50 [1]: 1000 nM
SMILES: CO[C@@H]1O[C@H](CO)[C@@H](OCc2ccccc2)[C@H](OCc2ccccc2)[C@H]1OCc1ccccc1 [III-46]

Ki (hSSTR3; TABLE 3, read-out: hSSTR 3 Ki): 3300 nM | Ki (hSSTR4; TABLE 3, read-out: hSSTR 4 Ki): 1900 nM
SMILES: NCCCCCOC[C@@H]1O[C@H](OCCc2c[nH]c3ccccc23)[C@H](OCc2ccccc2)[C@H](OCc2ccccc2)[C@H]1OCc1ccccc1 [IV-22, 2-(1H-Indol-3-yl)ethyl 2,3,4-tri-O-benzyl-6-O-(5'-aminopentyl)-β-L-mannopyranoside]
hSSTR subtype affinity profile (five hSSTRs): high affinities for hSSTR2 and hSSTR4 and a low affinity for SSTR1

Ki (five hSSTRs; average over hSSTRs): 1000 nM | Ki (hSSTR5): 1300 nM | affinity at SSTR 3 (hSSTR3): submicromolar affinities | Ki (hSSTR3; TABLE 3, read-out: hSSTR 3 Ki): 600 nM | affinity at SSTR 2 (hSSTR2): submicromolar affinities | Ki (hSSTR2; TABLE 3, read-out: hSSTR 2 Ki): 600 nM | affinity at SSTR 4 (hSSTR4): submicromolar affinities | Ki (hSSTR4; TABLE 3, read-out: hSSTR 4 Ki): 500 nM | Ki (hSSTR1; TABLE 3, read-out: hSSTR 1 Ki): 2100 nM | AtT-20 cells IC50 ([2]; TABLE 2 (Example 106)): DNB | IC50 [2, 4]: 13000 nM
SMILES: NCCCCC(N)NC[C@H]1O[C@@H](OCCc2c[nH]c3ccccc23)[C@H](OCc2ccccc2)[C@@H](OCc2ccccc2)[C@@H]1OCc1ccccc1 (stereo partly drawn) [IV-42, 2-(1H-indol-3-yl)ethyl 2,3,4-tri-O-benzyl-6-N-(1',5'-diamino-pentyl)-β-D-glucopyranoside]
activity / affinity at SRIF receptors of AtT-20 cells [2]: did not result in an increase in affinity

hSSTR subtype affinity profile (five hSSTRs): atypically high affinity for hSSTR5 | Ki (hSSTR5): 4000 nM | Ki (hSSTR3; TABLE 3, read-out: hSSTR 3 Ki): 6200 nM | Ki (hSSTR2; TABLE 3, read-out: hSSTR 2 Ki): 4600 nM | Ki (hSSTR4; TABLE 3, read-out: hSSTR 4 Ki): 3000 nM | Ki (hSSTR1; TABLE 3, read-out: hSSTR 1 Ki): 6800 nM | IC50 [2, 4]: 4100 nM
SMILES: NCCCCCOC[C@H]1O[C@@H](OCCc2c[nH]c3ccccc23)[C@H](OCc2c[nH]cn2)C[C@@H]1OCc1ccccc1 [IV-60, 2-(1H-Indol-3-yl)ethyl 2-O-(4'-methylene-1H-imidazole)-3-deoxy-4-O-benzyl-6-O-(5'-aminopentyl)-β-D-glucopyranoside]

binding of SSTR5 (hSSTR5): failed to bind SSTR5 | Ki (hSSTR5): > 10000 nM | Ki (hSSTR3; TABLE 3, read-out: hSSTR 3 Ki): 900 nM | Ki (hSSTR3; read-out: Ki at SSTR 3): 900 nM | Ki (hSSTR2; TABLE 3, read-out: hSSTR 2 Ki): 800 nM | Ki (hSSTR2; read-out: Ki at SSTR 2): 800 nM | Ki (hSSTR4; TABLE 3, read-out: hSSTR 4 Ki): 100 nM | Ki (hSSTR4; read-out: Ki at SSTR 4): 100 nM | Ki (hSSTR1; TABLE 3, read-out: hSSTR 1 Ki): 300 nM | Ki (hSSTR1; read-out: Ki at SSTR 1): 300 nM
SMILES: NCCCCCOC[C@@H]1O[C@H](OCCc2c[nH]c3ccccc23)[C@H](OCc2c[nH]cn2)[C@H](OCc2ccccc2)[C@H]1OCc1ccccc1 [IV-72, 2-(1H-indol-3-yl)ethyl 2-O-(4'-methylene-1H-imidazole)-3,4-di-O-benzyl-6-O-(5'-amino-pentyl)-β-L-mannopyranoside]

binding of the NK-1 receptor (NK-1 receptor): did not bind the NK-1 receptors
SMILES: Fc1ccc(COC[C@H]2O[C@@H](OCCc3c[nH]c4ccccc34)[C@H](OCc3ccc4ccccc4c3)[C@@H](OCc3ccccc3)[C@@H]2OCc2ccccc2)cc1 [IV-79, (+)-2-(1H-indol-3-yl)ethyl-3,4-di-O-benzyl-6-O-(4-fluorobenzyl)-2-O-(2-naphthyl)methyl-β-D-glucopyranoside]

binding of the NK-1 receptor (NK-1 receptor): did not bind the NK-1 receptors
SMILES: Fc1ccc(OC[C@H]2O[C@@H](OCCc3c[nH]c4ccccc34)[C@H](OCc3ccc4ccccc4c3)[C@@H](OCc3ccccc3)[C@@H]2OCc2ccccc2)cc1 [IV-81, (+)-2-(1H-indol-3-yl)ethyl-3,4-di-O-benzyl-6-O-(4-fluorophenyl)-2-O-(2-naphthyl)methyl-β-D-glucopyranoside]

binding of the NK-1 receptor (NK-1 receptor): did not bind the NK-1 receptors
SMILES: Fc1ccc(CO[C@H]2[C@H](OCCc3c[nH]c4ccccc34)O[C@H](COCc3ccc4ccccc4c3)[C@@H](OCc3ccccc3)[C@@H]2OCc2ccccc2)cc1 [IV-84, (+)-2-(1H-inclol-3-yl) ethyl-3, li-di-O-Benzyl 2-O-(4-fluorobenzyl)-B-D-glucopyranoside]

binding of the NK-1 receptor (NK-1 receptor): did not bind the NK-1 receptors | IC50 (NK-1 receptor; [6]): 209 nM
SMILES: CC(=O)NCCCCCOC[C@H]1O[C@@H](OCCc2c[nH]c3ccccc23)[C@H](OCc2ccc3ccccc3c2)[C@@H](OCc2ccccc2)[C@@H]1OCc1ccccc1 [IV-92, (+)-2-(1H-indol-3-yl)ethyl-6-O-(N-acetyl-5-aminopentyl)-3,4-di-O-benzyl-2-O-(2-naphthyl)methyl-β-D-glucopyranoside]
